Key:
[1] = test system: human neuroblastoma SK-N-MC cells; assay: Protection against neuronal death induced by 3-nitropropionic acid (inhibition of succinate dehydrogenase), WST-1; format: cell-based; settings: NST0060 at 40 μM; 30 μM 3-NP, 22 hours; significant in the range of 4 to 40 μM
Protocol: (§1) The assay was performed on human neuroblastoma SK-N-MC cells in culture, maintained as described in section 2.1.
The inhibition caused by compound NST0060 with respect to cell death caused by treatment with 3-nitropropionic (3-NP) acid was analyzed. 3-NP is an irreversible inhibitor of the succinate dehydrogenase enzyme which in animal models causes oxidative stress and apoptotic cell death in the striatum and mimics neurochemical and anatomical changes associated with Huntington's disease (HD). These cells, not exceeding 15 passages, were seeded on 96-well plates treated for adherent cells with a cell concentration of 5×10^4 cells/well; 3 wells of the plate were seeded for each assay condition.
(§2) After 24 hours of cell incubation (at 37° C. and 5% CO2), the cell treatments were performed with 100 μl of total volume for the following conditions: • Control: culture medium (medium) • 3-Nitropropionic (3-NP): medium plus 30 μM 3-NP, causing death of 50% of the cells. • 3-NP plus NST0060: medium plus 3-NP (30 μM) plus NST0060 at 1, 4, 10, 40 or 100 μM.
(§3) The cells were incubated (at 37° C. and 5% CO2) with these treatments for 22 hours, after which time WST-1 reagent (Roche) was added. The WST-1 test is based on the measurement of metabolic activity (method described in section 2.1).

[2] = test system: human neuroblastoma SK-N-MC cells; assay: Protection against neuronal death induced by tunicamycin (endoplasmic reticulum stress), WST-1; format: cell-based; settings: NST0060 at 4 μM; 24 μM tunicamycin, 22 hours; significant from 1 to 40 μM
Protocol: as §1
The inhibition caused by compound NST0060 with respect to cell death caused by treatment with tunicamycin generating endoplasmic reticulum stress was analyzed. Tunicamycin is an inhibitor of protein N-glycosylation, causing abnormal protein folding in the endoplasmic reticulum, therefore said proteins are accumulated and cause stress, resulting in cell death. These cells, not exceeding 15 passages, were seeded on 96-well plates treated for adherent cells with a cell concentration of 5×10^4 cells/well; 3 wells of the plate were seeded for each assay condition.
as §2, with “Tunicamycin (TM):” for “3-Nitropropionic (3-NP):”, “24” for “30”, “tunicamycin,” for “3-NP,”, “TM” for “3-NP”, “TM (24” for “3-NP (30”, “μM” for “μM.”
as §3

[3] = test system: caspase 3/7; assay: Inhibition of activation of caspase 3/7 in camptothecin cell model of apoptosis; format: cell-based, human; settings: Homo sapiens, 50 μM CPT 6 hours, read-out: inhibition of caspase 3/7 with respect to camptothecin
Protocol: as §1
The induction of apoptosis on the cells in culture was performed with camptothecin (CPT), which triggers the activation of cell apoptosis. Apoptosis was quantified by means of the measurement of the activation of effector caspases, caspase 3 or caspase 7, for which a kit for the fluorometric detection of active caspase 3/7 (Apo-ONE® Homogeneous Caspase-3/7, Promega) was used. Active caspases 3 or 7 of the cells cause the rupture of a substrate, which leads to fluorescence emission, which is read by means of a fluorometer. The effect of the pretreatment of compound NST0060 at 10 and 40 μM on the activation of caspase 3/7 produced by 50 μM of camptothecin (CPT) in the SK-N-MC cells was thus analyzed. These cells, not exceeding 15 passages, were seeded on 96-well plates treated for adherent cells with a cell concentration of 5×10^4 cells/well; 3 wells of the plate were seeded for each assay condition.
After 24 hours of cell incubation (at 37° C. and 5% CO2), the pretreatment with NST0060 at 10 and 40 μM was performed.
The cells were incubated (at 37° C. and 5% CO2) with these treatments for 6 hours, after which cell lysis buffer and the caspase substrate at the concentrations specified by the manufacturer were added; it was incubated at room temperature for 30 minutes and then frozen at −20° C. overnight. Fluorescence was measured the next day (499/521 nm, Exci/Emi).

[4] = test system: zebrafish (Danio rerio, AB strain) embryos; assay: Zebrafish embryo acute toxicity, mortality (OECD C.15); format: in vivo; settings: for Mortality (dead larvae with respect to the total): 3 days
Protocol: 30 control animals treated with dilution water and with daily replacement until the end of the assay.
30 animals treated with compound NST0060 (3 embryos for every ten replicates) diluted in dilution water at doses between 1 and 100 mg/Kg and with daily replacement of the substance during the days that the assay lasted.
After the time of exposure to the substances under study, the mortality record of the larvae was determined, results being shown in Table 2.

[5] = test system: TNFα; assay: LPS model of systemic shock in mice, plasma TNFα at 2 and 4 hours; format: in vivo; settings: two i.p. doses of 50 mg/kg; 2 and 4 hours post-LPS
Protocol: (§4) To that end an additional assay was carried out in which all the animals included were 12-week old male C57BL6 mice. The experiments were carried out strictly complying with the standard entitled Guidance on the Operation of Animals (Scientific Procedures, Act. 1986). The animals were subjected to their respective quarantine period and were treated with maximum precaution to minimize possible contaminations during treatments and handling.
(§5) The mice were split up into three experimental groups: control group (n=8); control+LPS group (n=16); NST0060+LPS group (n=16). The mice were i.p. administered two doses of 50 mg/kg of NST0060 (in its lactone form) spaced out 12 hours from one another. 0.5% methyl cellulose in physiological saline, which was administered to the mice in the control groups with the same administration regimen, was used as a vehicle. Peripheral systemic inflammation was induced one hour after the last treatment by means of a single i.p. injection of LPS at 8 mg/kg. Half the mice in which systemic shock was induced (8 animals from the control+LPS group and 8 animals from the NST0060+LPS group) were sacrificed 2 hours after the inoculation of the LPS. Blood was taken and plasma was obtained, and both were frozen. […] The concentration of the inflammatory cytokines TNFα and IL-1β was evaluated in the plasma obtained by means of ELISA.

[6] = test system: IL-1β; assay: LPS model of systemic shock in mice, plasma IL-1β; format: in vivo; settings: two i.p. doses of 50 mg/kg; 2 hours post-LPS
Protocol: as §4, §5

[7] = in vitro; settings: PAMPA, pH 7.4
Excerpt: To that end, the BBB was mimicked in an in vitro system that allowed evaluating the compound without using cells, and where the so-called PAMPA (Parallel Artificial Membrane Permeation Assay) was used, using a sandwich system considering the crossing of compounds by means of passive diffusion.
A mixture of marketed lipids derived from pig brain with a phospholipid composition very similar to that which forms the barrier and known as PBL (Porcine Polar Brain Lipid) was used to mimic the blood-brain barrier. This compound was stored at −20° C. dissolved in dodecane at 100 μg/ml in glass vials.
To that end, a 1/100 dilution of the compounds was performed, being the DMSO content in all cases 1%.
Five microliters of PBL at 20 μg/ml prepared from the frozen stock at 100 μg/mL were added in a 96-well filter plate, with a PVDF membrane and a pore size of 45 μm (MAIPN4550, Millipore). After 2 minutes, 300 μl of the phosphate buffer used to dilute the compounds were added. […] After that time, 100 μl from the wells of the donor plates and acceptor plates were transferred to a special 96-well plate for UV reading. […] The percentage of barrier crossing as well as the effective permeability (Pe) were calculated from the spectrophotometric data. […]
[Drug]acceptor=Absorbance of the acceptor well
[Drug]equilibrium=Absorbance of the mean of the basal wells/2 […]

Q: For `CCCC(CCC)C(=O)O[C@H]1C[C@@H](C)C=C2C=C[C@H](C)[C@H](CC[C@@H]3C[C@@H](O)CC(=O)O3)[C@H]21` [NST0060, 2-propylpentanoic acid (1S,3R,7S,8S,8aR)-1,2,3,7,8,8a-hexahydro-3,7-dimethyl-8-[2-[(2R,4R)-tetrahydro-4-hydroxy-6-oxo-2H-pyran-2-yl]ethyl]-1-naphthalenyl ester], which “protection against cell death caused by 3-NP” value [1] is on record?
A: 32%

Q: What about the “protection against cell death caused by TM” value [2] of the same compound?
A: 42%

Q: What about the inhibition at 10 µM ([3]; pretreatment 24 h at 10 μM) of the same compound?
A: 58%

Q: What about the inhibition at 40 µM ([3]; pretreatment 24 h at 40 μM) of the same compound?
A: 32%

Q: And the “Mortality (dead larvae with respect to the total)” value (shortened to “Mortality”) ([4]; Dose 1 mg/kg)?
A: 0/30

Q: And the “Mortality” value ([4]; Dose 3 mg/kg)?
A: 0/30

Q: What about the “Mortality” value ([4]; Dose 10 mg/kg) of the same compound?
A: 7/30

Q: And the “Mortality” value ([4]; Dose 30 mg/kg)?
A: 30/30

Q: What about the “Mortality” value ([4]; Dose 100 mg/kg) of the same compound?
A: 30/30

Q: What about the “deaths out of 30 animals” value ([4]; dose of 10 mg/Kg, 72 h) of the same compound?
A: 7

Q: And the “plasma concentration of TNFα (inflammatory response)” value [5]?
A: decrease in the inflammatory response at both 2 and 4 hours post-LPS

Q: What about the “cytokine IL-1β plasma levels” value [6] of the same compound?
A: statistically significant decrease in cytokine IL-18 plasma levels

Q: What about the Papp at 18 h, 100 μM [7] of the same compound?
A: 8.8 ± 1.2 ×10⁻⁶ cm/s
